From ChEMBL document CHEMBL1124117, “Coupling products of amino acids to penicillin V and cephalothin: synthesis and susceptibility to carboxypeptidases and lysosomal enzymes” (J Med Chem, 1988) come the findings set out here.

Data set [1] can be described thus: Half-life of compound in the presence of lysosomal enzymes in the acetate buffer. The class given is ADME.
The nature of data set [2]: Half-life of compound in acetate buffer (pH 4.5). The class given is ADME.

Regarding `CC(=O)OCC1=C(C(=O)O)N2C(=O)[C@@H](NC(=O)Cc3cccs3)[C@H]2SC1` [CEPHALOTHIN], the half-life (commonly the time in which the quantity being followed falls by half) is 1.1 h in data set [1] and 29 h in data set [2].
For the molecule `CC1(C)S[C@@H]2[C@H](NC(=O)COc3ccccc3)C(=O)N2[C@H]1C(=O)O` [PENICILLIN V], the half-life in data set [1] is 14 h; in data set [2], 17 h.
As to `CC(=O)OCC1=C(C(=O)NC(CC(C)C)C(=O)O)N2C(=O)[C@@H](NC(=O)Cc3cccs3)[C@H]2SC1` (stereo partly drawn), the figures for the half-life in data set [1] and in data set [2] were 0.8 h and 41 h, respectively.
Turning to `CC1(C)S[C@@H]2[C@H](NC(=O)COc3ccccc3)C(=O)N2[C@H]1C(=O)N[C@@H](Cc1ccc(O)cc1)C(=O)O`, the half-life in data set [1] and in data set [2] was 7 h throughout.
